Assay results reported in US10377770B2 (Novartis AG, priority 2015, dated 2019).

Target: C-Raf FL (full length CRAF with Y340E and Y341E activating mutations, co-expressed with h14-3-3 zeta) (Homo sapiens (Human), UniProt P04049, Y340E/Y341E)
Experiment: In vitro Raf activity determination, AlphaScreen p-MEK readout, c-Raf (C-Raf FL)
Type: biochemical
Details: c-Raf approximately 4 nM, ATP 1 μM, pre-incubation 60 minutes, reaction 1 hour
How it was run: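 Full-length C-Raf (~4 nM) pre-incubated 60 min at room temperature with compound and kinase-dead biotinylated MEK1 (~10 nM) in Tris pH 7.5, 15 mM MgCl2, BSA, DTT. Reaction started with 1 μM ATP and run 1 h at room temperature. Phospho-MEK detected by AlphaScreen with anti-p-MEK antibody.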

Sequence of C-Raf FL (full length CRAF with Y340E and Y341E activating mutations, co-expressed with h14-3-3 zeta) (P04049 whole entry Y340E/Y341E): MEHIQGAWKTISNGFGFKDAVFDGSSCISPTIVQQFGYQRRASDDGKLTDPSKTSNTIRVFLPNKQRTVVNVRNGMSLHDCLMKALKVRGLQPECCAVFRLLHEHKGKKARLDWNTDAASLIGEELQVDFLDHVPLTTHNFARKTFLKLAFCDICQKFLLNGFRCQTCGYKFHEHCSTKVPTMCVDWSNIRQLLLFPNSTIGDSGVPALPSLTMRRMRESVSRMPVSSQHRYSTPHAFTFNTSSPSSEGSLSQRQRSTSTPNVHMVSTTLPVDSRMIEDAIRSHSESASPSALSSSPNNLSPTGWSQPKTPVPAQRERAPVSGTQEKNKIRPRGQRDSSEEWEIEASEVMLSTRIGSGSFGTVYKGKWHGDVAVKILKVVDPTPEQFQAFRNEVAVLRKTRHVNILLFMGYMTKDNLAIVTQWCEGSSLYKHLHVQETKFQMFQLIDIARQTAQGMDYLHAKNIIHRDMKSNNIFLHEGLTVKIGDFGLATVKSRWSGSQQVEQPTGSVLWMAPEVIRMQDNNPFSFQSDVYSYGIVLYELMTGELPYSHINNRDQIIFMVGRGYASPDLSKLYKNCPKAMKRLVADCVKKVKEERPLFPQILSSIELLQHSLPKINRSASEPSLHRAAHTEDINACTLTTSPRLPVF
Sequence of C-Raf FL (full length CRAF with Y340E and Y341E activating mutations, co-expressed with h14-3-3 zeta) (P63104 whole entry partner): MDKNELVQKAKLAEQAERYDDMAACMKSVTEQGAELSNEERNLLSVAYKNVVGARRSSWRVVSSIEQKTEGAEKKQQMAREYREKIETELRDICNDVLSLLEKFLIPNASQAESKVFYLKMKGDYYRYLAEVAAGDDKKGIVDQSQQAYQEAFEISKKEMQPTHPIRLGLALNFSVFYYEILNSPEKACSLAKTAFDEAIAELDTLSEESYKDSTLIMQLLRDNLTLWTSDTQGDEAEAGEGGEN

Structure (SMILES)	IC50 [nM]
Cc1ccc(NC(=O)c2ccnc(C(F)(F)F)c2F)cc1-c1cnc2c(c1)C1CCOCC1OC(=O)N2CCO (stereo not drawn) [Example 331, 3-fluoro-N-(3-((4,11b-cis)-7-(2-hydroxyethyl)-6-oxo-2,4,4a,6,7,11b-hexahydro-1H-pyrano[4,3-f]pyrido[2,3-d][1,3]oxazepin-10-yl)-4-methylphenyl)-2-(trifluoromethyl) isonicotinamide]	6.6
CCN1C(=O)C2[C@H]3COC[C@H]3[C@@H]2c2cc(-c3cc(NC(=O)c4ccnc(C(F)(F)F)c4)ccc3C)cnc21 (stereo in doubt) [Example 268, N-(3-((6aS, 6bS, 9aS, 9bS)-5-ethyl-6-oxo-5,6,6a,6b,7,9,9a,9b-octahydrofuro[3′,4′: 3,4]cyclobuta[1,2-c][1,8]naphthyridin-2-yl)-4-methylphenyl)-2-(trifluoromethyl) isonicotinamide]	0.3
Cc1ccc(NC(=O)c2ccnc(C(F)(F)F)c2F)cc1-c1ccc2c(c1)N1CCOC[C@H]1[C@](F)(CO)C2 [Example 380, 3-fluoro-N-(3-((4aS,5S)-5-fluoro-5-(hydroxymethyl)-1,2,4,4a,5,6-hexahydro-[1,4)oxazino[4,3-a]quinolin-9-yl)-4-methylphenyl)-2-(trifluoromethyl)isonicotinamide]	0.4
Cc1ncc(NC(=O)c2cccc(C(F)(F)F)c2)cc1-c1ccc2c(c1)N1CCOCC1C(CO)C2 (racemic) [Example 61, (rac)-N-(5-(5-(hydroxymethyl)-1,2,4,4a,5,6-hexahydro-[1,4]oxazino[4,3-a]quinolin-9-yl)-6-methylpyridin-3-yl)-3-(trifluoromethyl)benzamide]	0.033
Cc1ccc(NC(=O)c2ccnc(C(C)(F)F)c2)cc1-c1ccc2c(c1)N1CCOC[C@@H]1C(CO)(CO)C2 [Example 53, (S)—N-(3-(5,5-bis(hydroxymethyl)-1,2,4,4a,5,6-hexahydro-[1,4]oxazino[4,3-a]quinolin-9-yl)-4-methylphenyl)-2-(1,1-difluoroethyl)isonicotinamide]	0.0062
Cc1ccc(NC(=O)c2ccnc(C(C)(F)F)c2)cc1-c1cc2c(nn1)OCC1COCCN21 (racemic) [Example 135, rac-2-(1,1-Difluoroethyl)-N-(4-methyl-3-(6a,7,9,10-tetrahydro-6H-[1,4]oxazino[4,3-d]pyridazino[3,4-b][1,4]oxazin-2-yl)phenyl)isonicotinamide]	0.019
Cc1ccc(NC(=O)c2cncc(C(F)(F)F)c2)cc1-c1ccc2c(c1)N1CCOC[C@H]1[C@](F)(CO)C2 [Example 393, N-(3-((4aS,5S)-5-fluoro-5-(hydroxymethyl)-1,2,4,4a,5,6-hexahydro-[1,4]oxazino[4,3-a]quinolin-9-yl)-4-methylphenyl)-5-(trifluoromethyl)nicotinamide]	0.1
Cc1ncc(NC(=O)c2cccc(C(F)(F)F)c2)cc1-c1cnc2c(c1)N1CCOC[C@@H]1[C@@H](CO)C2 [Example 121, N-(5-((4aS,5S)-5-(hydroxymethyl)-1,2,4,4a,5,6-hexahydro-[1,4]oxazino[4,3-a][1,5]naphthyridin-9-yl)-6-methylpyridin-3-yl)-3-(trifluoromethyl)benzamide]	0.0095
Cc1ccc(NC(=O)c2ccnc(C(F)(F)F)c2F)cc1-c1cnc2c(c1)C1C3COCC3C1C(=O)N2CCO (stereo not shown) [Example 280, 3-fluoro-N-(3-(5-(2-hydroxyethyl)-6-oxo-5,6,6a,6b,7,9,9a,9b-octahydrofuro[3′,4′: 3,4]cyclobuta[1,2-c][1,8]naphthyridin-2-yl)-4-methylphenyl)-2-(trifluoromethyl) isonicotinamide]	0.5
Cc1ccc(NC(=O)c2ccnc(C(F)(F)F)c2)cc1-c1ccc2c(c1)N1CCOC[C@H]1C[C@H]2O [Example 4, N-(3-((4aR,6R)-6-hydroxy-1,2,4,4a,5,6-hexahydro-[1,4]oxazino[4,3-a]quinolin-9-yl)-4-methylphenyl)-2-(trifluoromethyl)isonicotinamide]	0.0062
